Results as given in article PMC6813166 (CPT: Pharmacometrics & Systems Pharmacology, 2019).

What was measured:
Population PK analysis = assay type: in vivo, human; conditions: for V1, final model estimate (RSE%): apparent volume of the central compartment; for V2, final model estimate (RSE%): apparent volume of the peripheral compartment; for BSV in V1, final model CV% (shrink) / BSV in V2, final model CV% (shrink): between-subject variability; for Q, final model estimate (RSE%): intercompartmental clearance; for CL, final model estimate (RSE%): population PK, healthy volunteers and patients, i.v. infusion; for Covariate on CL: CrCL (power), final model estimate (RSE%): power relationship centered on the median; for Proportional Error, final model CV% (shrink): residual variability
[1] = imipenem monotherapy, in vivo animal models; cited from earlier work
[2] = patients; cited from earlier work
[3] = Simulation of upper and lower clinical bounds of exposure; design: species or system human
[4] = test system: Pseudomonas aeruginosa and Enterobacteriaceae; conditions: HF model; cited from earlier work
[5] = 625 mg q6h for 7 days, healthy adult volunteers; cited from earlier work

Row | V1, final model estimate (RSE%) (Population PK analysis) | V2, final model estimate (RSE%) (Population PK analysis) | BSV in V1, final model CV% (shrink) (Population PK analysis) | BSV in V2, final model CV% (shrink) (Population PK analysis) | BSV in V1, bootstrap CV% (Population PK analysis; bootstrap n = 1,000) | BSV in V2, bootstrap CV% (Population PK analysis; bootstrap n = 1,000) | CL, bootstrap estimate (RSE%) (Population PK analysis; bootstrap n = 1,000) | Covariate on CL: CrCL (power), bootstrap estimate (RSE%) (Population PK analysis; bootstrap n = 1,000) | Covariate on V1: WT (power), bootstrap estimate (RSE%) (Population PK analysis; bootstrap n = 1,000) | Proportional Error, bootstrap CV% (Population PK analysis; bootstrap n = 1,000) | Q, bootstrap estimate (RSE%) (Population PK analysis; bootstrap n = 1,000) | V1, bootstrap estimate (RSE%) (Population PK analysis; bootstrap n = 1,000) | V2, bootstrap estimate (RSE%) (Population PK analysis; bootstrap n = 1,000) | Q, final model estimate (RSE%) (Population PK analysis) | CL, final model estimate (RSE%) (Population PK analysis) | Covariate on CL: CrCL (power), final model estimate (RSE%) (Population PK analysis) | Proportional Error, final model CV% (shrink) (Population PK analysis) | SMILES | Covariate on V1: WT (power), final model estimate (RSE%) (Population PK analysis; body weight) | further results
1 | 15.83 (3.2) L | 5.84 (4.0) L | 74.4 (7.4) CV% | 35.0 (52.9) CV% | 74.2 CV% | 34.8 CV% | 12.53 (2.0) L/hour | 0.46 (8.0) | 0.76 (21.6) | 16.1 CV% | 11.15 (6.7) L/hour | 15.76 (3.4) L | 5.86 (3.9) L | 11.09 (6.5) L/hour | 12.53 (2.0) L/hour | 0.46 (8.1) | 16.1 (19.0) CV% | C[C@@H](O)[C@H]1C(=O)N2C(C(=O)O)=C(SCCN=CN)C[C@H]12 [imipenem] | 0.74 (19.1) | Covariate on CL: WT (power), final model estimate (RSE%) (Population PK analysis; body weight): 0.33 (30.5); Covariate on CL: WT (power), bootstrap estimate (RSE%) (Population PK analysis; bootstrap n = 1,000): 0.34 (32.2); Covariate on V1: Healthy, bootstrap estimate (RSE%) (Population PK analysis; bootstrap n = 1,000): −0.28 (10.0); Covariate on V1: Healthy, final model estimate (RSE%) (Population PK analysis; proportional change, healthy volunteers vs patients): −0.29 (9.5); fT > MIC required to achieve 1-log kill to 2-log kill [1]: ~ 30%; concentration lower in peritoneal fluid than in plasma, on average [2]: 25%
2 | 11.08 (2.9) L | 6.41 (3.8) L | 59.5 (18.8) CV% | 41.1 (49.8) CV% | 59.4 CV% | 41.0 CV% | 7.02 (2.0) L/hour | 0.75 (8.3) | 0.72 (17.9) | 15.3 CV% | 10.48 (7.0) L/hour | 11.06 (2.9) L | 6.43 (3.6) L | 10.45 (6.8) L/hour | 7.02 (2.0) L/hour | 0.75 (8.3) | 15.3 (14.1) CV% | O=C(NC1CCNCC1)[C@@H]1CC[C@@H]2CN1C(=O)N2OS(=O)(=O)O [relebactam] | 0.70 (15.8) | AUC0-24 hours target [3]: 76.9 µM·h; fAUC0-24 hours/MIC required to achieve 2-log kill [4]: ≥ 7.5; safety and tolerability [5]: safe and well tolerated
